Publication PMC12019362, “Conformational changes in the motor ATPase CpaF facilitate a rotary mechanism of Tad pilus assembly” (Nature Communications, 2025)

Assays:
[1] = target: T1, CpaF^66-501 (Caulobacter vibrioides, UniProt Q9L714); assay: enzyme-coupled ATPase assay (pyruvate kinase / lactate dehydrogenase, NADH at […] nm); type: biochemical; details: 1 mM ATP, 1 mM MgCl2, pH 8.0, 30 °C
T1 construct: IDR truncation, residues 66-501, N-terminal His6 tag (pET28a), E. coli Rosetta 2

[2] = target: T2, CpaF^80-501 (Caulobacter vibrioides, UniProt Q9L714); assay: as above; type: biochemical; details: 1 mM ATP, 1 mM MgCl2, pH 8.0, 30 °C
T2 construct: IDR truncation, residues 80-501 (whole IDR removed), N-terminal His6 tag (pET28a), E. coli Rosetta 2

[3] = target: T3, CpaF (Caulobacter vibrioides, UniProt Q9L714, K287A); assay: as above; type: biochemical; details: 1 mM ATP, 1 mM MgCl2, pH 8.0, 30 °C; Walker A mutant
T3 construct: full length (501 residues), N-terminal His6 tag (pET28a), tag removal not described, E. coli Rosetta 2; homohexamer; residues 80-501 modelled

[4] = target: T4, CpaF^73-501 (Caulobacter vibrioides, UniProt Q9L714); assay: as above; type: biochemical; details: 1 mM ATP, 1 mM MgCl2, pH 8.0, 30 °C
T4 construct: IDR truncation, residues 73-501, N-terminal His6 tag (pET28a), E. coli Rosetta 2

[5] = target: the molecule itself; assay: cryo-EM structure; purified CpaF, 5 mg/mL, 50 mM HEPES pH 8.0, 200 mM NaCl, 1 mM TCEP, 0.05% CHAPS; three samples: no added nucleotide, 50 uM equimolar ATP/ADP/MgCl2, 1 mM ATP/MgCl2; C2-symmetric hexamers (closed, compact, expanded)

T3 sequence (Q9L714 entry or part of it K287A): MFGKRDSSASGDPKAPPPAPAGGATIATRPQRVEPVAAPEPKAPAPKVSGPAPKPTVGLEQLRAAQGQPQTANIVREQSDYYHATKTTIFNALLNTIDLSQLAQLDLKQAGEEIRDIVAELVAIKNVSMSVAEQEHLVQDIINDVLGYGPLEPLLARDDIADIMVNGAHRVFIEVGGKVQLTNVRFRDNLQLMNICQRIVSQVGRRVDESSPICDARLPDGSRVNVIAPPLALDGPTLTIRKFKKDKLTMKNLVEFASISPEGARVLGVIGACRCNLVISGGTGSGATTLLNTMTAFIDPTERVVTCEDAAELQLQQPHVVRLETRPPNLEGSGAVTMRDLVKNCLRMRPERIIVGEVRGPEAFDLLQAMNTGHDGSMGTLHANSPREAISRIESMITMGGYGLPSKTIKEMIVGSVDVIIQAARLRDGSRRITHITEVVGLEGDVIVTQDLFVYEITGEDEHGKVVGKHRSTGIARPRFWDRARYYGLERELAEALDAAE

Q: For `Nc1ncnc2c1ncn2[C@@H]1O[C@H](COP(=O)(O)OP(=O)(O)OP(=O)(O)O)[C@@H](O)[C@H]1O` [ATP], which ATPase activity [1] is on record?
A: Enzyme-coupled ATPase assays revealed that IDR truncation does not abrogate enzyme activity

Q: And the ATPase activity [2]?
A: Enzyme-coupled ATPase assays revealed that IDR truncation does not abrogate enzyme activity

Q: And the ATPase activity [3]?
A: IDR truncation does not abrogate enzyme activity while a Walker A motif point mutant CpaF^K287A does

Q: And the ATPase activity [4]?
A: Enzyme-coupled ATPase assays revealed that IDR truncation does not abrogate enzyme activity

B1: Caulobacter crescentus CpaF (Tad pilus motor ATPase) (enzyme, Caulobacter crescentus NA1000, UniProt Q9L714 1-501, looked up)
chain: MFGKRDSSASGDPKAPPPAPAGGATIATRPQRVEPVAAPEPKAPAPKVSGPAPKPTVGLEQLRAAQGQPQTANIVREQSDYYHATKTTIFNALLNTIDLSQLAQLDLKQAGEEIRDIVAELVAIKNVSMSVAEQEHLVQDIINDVLGYGPLEPLLARDDIADIMVNGAHRVFIEVGGKVQLTNVRFRDNLQLMNICQRIVSQVGRRVDESSPICDARLPDGSRVNVIAPPLALDGPTLTIRKFKKDKLTMKNLVEFASISPEGARVLGVIGACRCNLVISGGTGSGKTTLLNTMTAFIDPTERVVTCEDAAELQLQQPHVVRLETRPPNLEGSGAVTMRDLVKNCLRMRPERIIVGEVRGPEAFDLLQAMNTGHDGSMGTLHANSPREAISRIESMITMGGYGLPSKTIKEMIVGSVDVIIQAARLRDGSRRITHITEVVGLEGDVIVTQDLFVYEITGEDEHGKVVGKHRSTGIARPRFWDRARYYGLERELAEALDAAE
notes: CpaF, Caulobacter crescentus NA1000, cloned from genomic DNA into pET28a; 501 residues (IDR 1-79, 3HB 80-146, NTD-CAD 147-501); residues 80-501 are modelled in the maps, the IDR is not resolved; Hexamer with C2 symmetry in all five cryo-EM structures; the construct was cloned from strain NA1000; also called WT CpaF; full length CpaF; source: E. coli Rosetta 2, purified (Ni-NTA, Superose 6 SEC)
Q: B1 was tested. Which “stoichiometry N” value [5] did it give?
A: 6
